Key:
[1] = Clinical trial: 25(OH)D levels after oral supplementation; conditions: female, human, in vivo
Procedure: The objective was studying and comparing the pharmacokinetic characteristics of vitamin D3 and 25-hydroxyvitamin D3 administered to humans. Equimolar quantities of both substances were investigated. The regimen was based on 20 μg/day (or its equivalent on a weekly basis) of 25-hydroxyvitamin D3. For comparative purposes, it was necessary to administer equimolar quantities of either vitamin D3 or 25-hydroxyvitamin D3. In respect to administration of vitamin D3, the dose was considered to be sufficient to overcome background variability and provide and efficacious dose to the participants. […]
Plasma concentrations of 25-hydroxyvitamin D3 (e.g., peak and steady state) were determined by obtaining samples from the subjects at various times after the dosage was ingested. For screening purposes and to establish baseline values, a blood sample was obtained prior to enrollment into the study and the clinical laboratory measured vitamin D3, 25-hydroxyvitamin D3, calcium, creatinine, albumin, and fasting glucose in the serum. […]
Twenty healthy postmenopausal women with 25-Hydroxyvitamin D3 levels below 25 ng/ml and a mean age of 61.5 years (SD ±7.2) were enrolled in this study. […] On 14 visits over 4 months, 25(OH)D levels, and 7 inflammation markers (eotaxin, IL-8, IL-12, IP-10, MCP-1, MP-1β, RANTES) were measured. […]

[2] = in vivo; cited from earlier work
[3] = considered; no test described; cited from earlier work
[4] = ingestion of 250 μg/day as a dietary supplement; cited from earlier work

## C=C1CC[C@H](O)C/C1=C/C=C1\CCC[C@]2(C)[C@@H]([C@H](C)CCCC(C)C)CC[C@@H]12 [Vitamin D3, cholecalciferol]
[1]
  Mean 25(OH)D levels: 13.5 ng/mL

## 25-hydroxyvitamin D
[2]
  blood concentration at which hypercalcemia may occur: greater than 375 nmol/L

## C=C1CC[C@H](O)C/C1=C/C=C1\CCC[C@]2(C)[C@@H]([C@H](C)CCCC(C)(C)O)CC[C@@H]12 [25-Hydroxyvitamin D3, 25-hydroxyvitamin D3]
[3]
  activity relative to Vitamin D3: approximately 3 ×

## Vitamin D
[4]
  blood concentration of 25-hydroxyvitamin D: about 200 nmol/L
